Laboratory results reported in US20100260753A1, “AMINOFLAVONE (NSC 686288) AND COMBINATIONS THEREOF FOR TREATING BREAST CANCER” (priority 2007, published 2010).
Values joined by “and” are separate entries in the source; they are usually repeats but may differ in a detail not shown here. Equal entries are not always repeated. Where two headings read alike, the source gives them in different places.

Columns and labels:
MCF-7 TAM1 [1] = assay: MTT proliferation assay, MCF-7 TAM1; format: cell-based, human
Experimental: (§1) FIG. 2B depicts an MTT assay (10 days) comparing the sensitivity of parental MCF-7 to aminoflavone and the tamoxifen resistant subclone MCF-7TAM1 to 4-OH tamoxifen (TAM) and aminoflavone respectively. Cells were grown in medium with charcoal-stripped fetal calf serum supplemented with 10 nM E2, estrogen. MCF-7 cells that have become resistant to tamoxifen by either selection (MCF-7TAM1, FIG. 2B), or genetic manipulation (MCF-7Her2-18, Table 1), remain sensitive to aminoflavone. An understanding of how MCF-7 DF203r and MDA-MB-231 differ from MCF-7 in the dynamics and distribution of their AhR and AhR associated signaling complexes may allow the clarification of the basis for aminoflavone sensitivity and resistance.
(§2) MCF-7Her2-18 is a variant of MCF-7 over-expressing the Her2/neu oncoprotein. As a result, it is resistant to Herceptin® (Shou et al. 2004 “Mechanisms of tamoxifen resistance: increased estrogen receptor-HER2/neu cross-talk in ER/HER2-positive breast cancer.” J Nat Cancer Inst 96: 926-35) and tamoxifen. […] (1999 “A multidrug resistance transporter from human MCF-7 breast cancer cells.” Proc Natl Acad Sci USA. 95: 15665-70.) The IC50s (16-20 nM) and IC100s of aminoflavone (˜300 nM) were nearly identical in MCF-7Her2-18 and parental MCF-7 cells (See Table 1, below). In MCF-7TAM1 cells, which were serum starved and then treated for 10 days with E2 alone, 4-OH-tamoxifen plus E2, and aminoflavone plus E2, the concentration of 4-OH-tamoxifen causing growth inhibition was >10 μM.
(§3) Table 1 below summarizes the results of the MTT (methyl tetrazolium) tests that were performed to assay cell growth in a panel breast cell lines and their characteristics. Both, MCF-7Her2-18 and MCF-7TAM1 express estrogen receptor. […] The ER(−) cells MDA-MB-231 and MCF10A with nuclear AhR are several log-fold less sensitive to aminoflavone (Table 1, FIG. 4). These observations confirm that aminoflavone is valuable in patients who have lost clinical benefit from estrogen receptor antagonists. […]

MCF-7 cells = assay: aminoflavone combination with estrogen receptor antagonists in MCF-7 cells; format: cell-based, human; settings: administered with aminoflavone (FIG. 9)
Experimental: To examine the role of estrogen receptor in aminoflavone sensitivity, the inventors combined aminoflavone with a fixed concentration (100 nM) of the “pure” antiestrogen Faslodex® in MCF-7 cells.

NCI 60 cell line = settings: "resistant" cell lines; cited from earlier work
T47D [2] = assay: MTT proliferation assay, T47D; format: cell-based, human
Experimental: (§4) FIG. 2A depicts in vitro MTT proliferation assay (5 days) showing aminoflavone activity in ER(+) and ER(−) breast cancer cell lines.
(§5) Table 1 below summarizes the results of the MTT (methyl tetrazolium) tests that were performed to assay cell growth in a panel breast cell lines and their characteristics. Both, MCF-7Her2-18 and MCF-7TAM1 express estrogen receptor. […] The ER(−) cells MDA-MB-231 and MCF10A with nuclear AhR are several log-fold less sensitive to aminoflavone (Table 1, FIG. 4). These observations confirm that aminoflavone is valuable in patients who have lost clinical benefit from estrogen receptor antagonists.
(§6) The inhibitory concentrations 50% (IC50) and 100% (IC100) listed in Table 1 represent the mean of three independent experiments. The estrogen receptor and AhR assays were performed three times.

MCF10A [3] = assay: MTT proliferation assay, MCF10A; format: cell-based, human
Experimental: as §5, §6

T47D [4] = assay: γ-H2AX foci induction, T47D; format: cell-based, human
MCF-7 [5] = assay: MTT proliferation assay, MCF-7; format: cell-based, human
Experimental: as §4, §1, §5, §6

ER+MDA-MB-231 cells = assay: aminoflavone sensitivity of MDA-MB-231 stably transfected with human estrogen receptor-α; format: cell-based
MCF10A [6] = assay: γ-H2AX foci induction, MCF10A; format: cell-based, human
LTLC = assay: growth inhibition in hormone refractory LTLC (FIGS. 5A and 5B); format: cell-based, human; settings: LTLC hormone refractory cell line
MCF-7DF203r = assay: MTT proliferation assay (5 days), MCF-7DF203r; format: cell-based, human; settings: MTT 5 days; MCF-7 subclone with acquired resistance to benzothiazoles (DF203)
Description: (Loaiza-Pérez et al.; Leong et al.) Isogenic subclones of MCF-7 resistant to the BZ DF203F (MCF-7DF203r), tamoxifen (MCF-7TAM1, MCF-7Her2-18) and Herceptin® (MCF-7Her2-18) were included.
as §4

MCF-7 xenografts = settings: 120 mg/kg intraperitoneally, 5 days per week; cited from earlier work
MCF-7 HER2-18 [7] = assay: MTT proliferation assay, MCF-7 HER2-18; format: cell-based, human; settings: mean of three independent experiments
Experimental: as §1, §2, §3

MDA-MB-231 [8] = assay: MTT proliferation assay, MDA-MB-231; format: cell-based, human
Experimental: as §4, §5, §6

Hs578T = assay: aminoflavone sensitivity of Hs578T (FIGS. 6A and 6B); format: cell-based, human
MDA-MB-231 [9] = assay: γ-H2AX foci induction, MDA-MB-231; format: cell-based, human
Description: (§7) Previous studies have reported that the occurrence of foci of phosphorylated γ-H2AX is indicative of the cellular response to aminoflavone in MCF-7 cells (Meng et al.). γ-H2AX phosphorylation is an early indicator of DNA double strand breaks and thus, induction of DNA-damage response in cells.
(§8) Phosphorylation of the histone variant γ-H2AX is a rapid and sensitive response to DNA double strand breaks. Aminoflavone induces γ-H2AX foci in drug sensitive MCF-7 and MCF-7TAM1 cells at IC50 concentrations 24 hrs after exposure, but not in aminoflavone resistant MDA-MB-231 breast cancer cells. γ-H2AX was detected by using a FITC-labeled anti-mouse secondary antibody (green) and its nuclear expression is shown by co-localization with the nuclear stain DAPI (blue). AhR was detected with a TRITC-labeled (red) secondary antibody.

MCF-7 HER2-18 [10] = assay: γ-H2AX foci induction, MCF-7 HER2-18; format: cell-based, human
MCF-7 [11] = assay: γ-H2AX foci induction, MCF-7; format: cell-based, human; settings: IC50 concentrations, 24 hrs after exposure
Description: as §7, §8

MCF-7 TAM1 [12] = assay: γ-H2AX foci induction, MCF-7 TAM1; format: cell-based, human; settings: IC50 concentrations, 24 hrs after exposure
Description: as §7, §8

[13] = MCF-7, MTT, mean of three independent experiments

Q: With `CC/C(=C(\c1ccc(O)cc1)c1ccc(OCCN(C)C)cc1)c1ccccc1` [4-OH-tamoxifen, reference compound] as the compound, how does the “concentration causing growth inhibition” value (MCF-7 TAM1 [1]; MCF-7TAM1, serum starved, 10 days, plus E2) read?
A: Its value is > 10 µM.

Q: With `C[C@]12CC[C@@H]3c4ccc(O)cc4C[C@@H](CCCCCCCCC[S+]([O-])CCCC(F)(F)C(F)(F)F)[C@H]3[C@@H]1CC[C@@H]2O` (stereo partly drawn) [Faslodex®, fulvestrant] as the compound, how does the “cell growth inhibition compared to aminoflavone alone” value (MCF-7 cells) read?
A: The value was “inhibited more greatly”.

Q: With `Cc1c(F)c(N)c2c(=O)cc(-c3ccc(N)c(F)c3)oc2c1F` [aminoflavone] as the compound, how does the “total growth inhibition (TGI)” value (NCI 60 cell line) read?
A: The value was ≥ 10 µM.

Q: And the IC50 (T47D [2]; Homo sapiens, MTT)?
A: Its IC50 is 0.014 µM.

Q: And the IC100 (T47D [2]; MTT)?
A: The IC100 was 20 nM.

Q: And the sensitivity to aminoflavone (T47D [2]; MTT 5 days (FIG. 2A))?
A: The sensitivity to aminoflavone was “pronounced susceptibility”.

Q: And the IC50 (MCF10A [3])?
A: The IC50 was 3 µM.

Q: And the IC100 (MCF10A [3])?
A: Its IC100 is 9 µM.

Q: What about the IC50 (MCF10A [3]; Homo sapiens, MCF-10A) of the same compound?
A: The IC50 was 3 to 25 µM.

Q: What about the “γ-H2AX Focl” value (T47D [4]) of the same compound?
A: Its value is “yes”.

Q: What about the IC50 (MCF-7 [5]; Homo sapiens, MCF7, MCF-7, MTT, mean of three independent experiments) of the same compound?
A: The IC50 was 0.016 to 0.02 µM.

Q: What about the sensitivity to aminoflavone (MCF-7 [5]; MCF-7, MTT 5 days (FIG. 2A)) of the same compound?
A: Its sensitivity to aminoflavone is “pronounced susceptibility”.

Q: And the IC50 (MCF-7 [5]; [13])?
A: Its IC50 is 0.016 µM.

Q: What about the IC100 (MCF-7 [5]; [13]) of the same compound?
A: Its IC100 is ~300 nM.

Q: What about the “sensitivity compared to parental and vector transfected cells” value (ER+MDA-MB-231 cells; ER+MDA-MB-231 vs parental and vector transfected cells) of the same compound?
A: Its value is 5 times.

Q: And the IC50 (ER+MDA-MB-231 cells; MDA-MB-231 stably transfected with human estrogen receptor-α)?
A: The IC50 was 5 µM.

Q: What about the “γ-H2AX Focl” value (MCF10A [6]) of the same compound?
A: The value was “no”.

Q: What about the tumor growth inhibition (LTLC) of the same compound?
A: Its tumor growth inhibition is “inhibits tumor growth”.

Q: And the sensitivity to aminoflavone (MCF-7DF203r)?
A: Its sensitivity to aminoflavone is “essentially completely cross-resistant”.

Q: And the tumor growth inhibition (MCF-7 xenografts)?
A: The tumor growth inhibition was 85 % of control.

Q: What about the IC50 (MCF-7 HER2-18 [7]; Homo sapiens) of the same compound?
A: Its IC50 is 0.016 to 0.02 µM.

Q: And the IC50 (MCF-7 HER2-18 [7])?
A: Its IC50 is 0.02 µM.

Q: What about the IC100 (MCF-7 HER2-18 [7]) of the same compound?
A: Its IC100 is ~300 nM and 375 nM.

Q: And the IC100 (MDA-MB-231 [8]; MTT)?
A: The IC100 was >100 µM.

Q: What about the sensitivity to aminoflavone (MDA-MB-231 [8]; MTT 5 days (FIG. 2A)) of the same compound?
A: Its sensitivity to aminoflavone is “refractoriness”.

Q: And the sensitivity to aminoflavone (Hs578T)?
A: Its sensitivity to aminoflavone is “resistant”.

Q: What about the “γ-H2AX Focl” value (MDA-MB-231 [9]) of the same compound?
A: Its value is “no”.

Q: What about the “γ-H2AX Focl” value (MCF-7 HER2-18 [10]) of the same compound?
A: Its value is “yes”.

Q: And the IC50 (MCF-7 TAM1 [1]; Homo sapiens, MCF7:TAM1, 240 h, MCF-7 TAM1, MTT 10 days, plus E2)?
A: The IC50 was 0.55 µM.

Q: And the IC100 (MCF-7 TAM1 [1]; MCF-7 TAM1, MTT)?
A: Its IC100 is 2 µM.

Q: And the “γ-H2AX Focl” value (MCF-7 [11])?
A: Its value is “induces and yes”.

Q: What about the “γ-H2AX Focl” value (MCF-7 TAM1 [12]) of the same compound?
A: The value was “induces and yes”.

Q: For `CC/C(=C(\c1ccccc1)c1ccc(OCCN(C)C)cc1)c1ccccc1` [tamoxifen], which “cell growth inhibition compared to aminoflavone alone” value (MCF-7 cells) is on record?
A: The value was “inhibited more greatly”.
